Measured values from publication PMC6646405, “A quantitative, high-throughput method identifies protein–glycan interactions via mass spectrometry” (Communications Biology, 2019).

Molecular target: streptavidin homotetramer (S4) (Streptomyces avidinii, UniProt P22629)
Experiment: CUPRA library screening against negative control streptavidin
Type: binding
Parameters: key: ratio change on GBP addition; ~1.0 = no binding (negative control)
Conditions: depletion index, 50 μM streptavidin

streptavidin homotetramer (S4), sequence (P22629 25-183): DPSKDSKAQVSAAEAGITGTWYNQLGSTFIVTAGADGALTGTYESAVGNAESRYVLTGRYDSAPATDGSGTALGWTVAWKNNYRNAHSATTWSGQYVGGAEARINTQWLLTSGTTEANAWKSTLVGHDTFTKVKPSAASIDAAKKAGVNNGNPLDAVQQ

CC(=O)N[C@H]1[C@H](O[C@@H]2[C@H](O[C@]3(C(=O)O)C[C@H](O)[C@@H](NC(C)=O)[C@H]([C@H](O)[C@@H](CO)O[C@]4(C(=O)O)C[C@H](O)[C@@H](NC(C)=O)[C@H]([C@H](O)[C@H](O)CO)O4)O3)[C@@H](O)[C@H](O[C@H]3[C@H](O)[C@@H](O)[C@H](N(CCOCCOCCNC(=O)[C@H](Cc4ccccc4)NC(=O)[C@H](Cc4ccccc4)NC(=O)CCCC(=O)NCCc4ccc(S(N)(=O)=O)cc4)C(C)=O)O[C@@H]3CO)O[C@@H]2CO)O[C@H](CO)[C@H](O)[C@@H]1O [GA10, GalNAcβ1-4(Neu5Acα2-8 Neu5Acα2-3)Galβ1-4Glc-CL]
average DI (mean of 4): 0.9828
DIi(50uM S4) (measurement 1 of 4): 0.9829
DIi(50uM S4) (measurement 2 of 4): 0.9821
DIi(50uM S4) (measurement 3 of 4): 0.9835
DIi(50uM S4) (measurement 4 of 4): 0.9826
